Drawing on patent US9598433B2, “Hepatitis C virus inhibitors” (BRISTOL-MYERS SQUIBB COMPANY, priority 2012, dated 2017), this text covers EC50 for eleven compounds.

The subject of experiment [1] is HCV genotype 1a (H77 strain) replicon in HUH-7 cells. Kind of experiment: HCV replicon luciferase reporter assay, genotype 1a. The experiment is classed as cell-based. To be noted: Hepatitis C virus, 72 h, genotype 1a replicon, 3 days incubation. The method in brief: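 Stable HUH-7 line carrying luciferase-reporter genotype 1a (H77) replicon with adaptive NS3 P1496L and NS5A S2204I mutations; 3.0×10^3 cells/well in 4% FCS, 0.5% DMSO, twenty-point 3-fold titration, 3 days at 37 °C. Renilla luminescence with 7.5 μM EnduRen; EC50 by four-parameter logistic fit; CC50 by multiplexed Cell Titer-Blue.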
(A replicon is a self-replicating genome or part of one, used to study replication in cells.)

In experiment [2] the test system is HCV genotype 1b (Con1) replicon in HUH-7 cells. Kind of experiment: HCV replicon luciferase reporter assay, genotype 1b. It counts as cell-based. To be noted: Hepatitis C virus, 72 h, genotype 1b replicon, 3 days incubation. The method in brief:
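The HUH-7 cells stably carried a genotype 1b Con1 replicon with a Renilla luciferase reporter and the S1179I adaptive mutation. Luminescence was read after 2 h with 7.5 μM EnduRen, and EC50s came from four-parameter logistic fits.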

pEC50: −log10 of the molar value. Where two headings read alike, the source gives them in different places.

As a reminder, the pEC50 is −log10 of the EC50, conventionally taken in molar units.

Take `C[C@@H]1CC/C=C\[C@@H]2C[C@@]2(C(=O)NS(=O)(=O)C2(C)CC2)NC(=O)[C@@H]2C[C@@H](Oc3nc4c(c5ccccc35)CCCO4)CN2C(=O)[C@@H](NC(=O)OC(C)(C)C(C)(F)F)[C@H](C)O1` [Compound 2303, 3,3-difluoro-2-methylbutan-2-yl ((2R,6S,7S,9R,13aS,14aR,16aS,Z)-2-((2,3-dihydro-1H-pyrano[2,3-c]isoquinolin-6-yl)oxy)-7,9-dimethyl-14a-(((1-methylcyclopropyl)sulfonyl)carbamoyl)-5,16-dioxo-2,3,5,6,7,9,10,11,13a,14,14a,15,16,16a-tetradecahydro-1H-cyclopropa[i]pyrrolo[1,2-e][1,5,8]oxadiazacyclopentadecin-6-yl)carbamate]: the pEC50 in experiment [1] (read-out: LE_1a (EC50, range)) was 9.00 to 9.29; in experiment [2] (read-out: LE_1b (EC50, range)), 9.00 to 9.29.
On to `C[C@@H]1CC/C=C\[C@@H]2C[C@@]2(C(=O)NS(=O)(=O)C2(C)CC2)NC(=O)[C@@H]2C[C@@H](Oc3nc4c(c5ccccc35)CCCO4)CN2C(=O)[C@@H](NC(=O)OC(C)(C)C(F)F)[C@H](C)O1` [Compound 2304, 1,1-difluoro-2-methylpropan-2-yl ((2R,6S,7S,9R,13aS,14aR,16aS,Z)-2-((2,3-dihydro-1H-pyrano[2,3-c]isoquinolin-6-yl)oxy)-7,9-dimethyl-14a-(((1-methylcyclopropyl)sulfonyl)carbamoyl)-5,16-dioxo-2,3,5,6,7,9,10,11,13a,14,14a,15,16,16a-tetradecahydro-1H-cyclopropa[i]pyrrolo[1,2-e][1,5,8]oxadiazacyclopentadecin-6-yl)carbamate], for which the pEC50 is 9.31 in experiment [1] (read-out: LE_1a (EC50)); 9.30 to 10.00 in experiment [1] (read-out: LE_1a (EC50, range)); 9.19 in experiment [2] (read-out: LE_1b (EC50)); 9.00 to 9.29 in experiment [2] (read-out: LE_1b (EC50, range)).
As to `C[C@@H]1CC/C=C\[C@@H]2C[C@@]2(C(=O)NS(=O)(=O)C2(C)CC2)NC(=O)[C@@H]2C[C@@H](Oc3nc4c(c5ccccc35)CCCO4)CN2C(=O)[C@@H](NC(=O)OC(C)(C)C(F)(F)F)[C@H](C)O1` [Compound 2305, 1,1,1-trifluoro-2-methylpropan-2-yl ((2R,6S,7S,9R,13aS,14aR,16aS,Z)-2-((2,3-dihydro-1H-pyrano[2,3-c]isoquinolin-6-yl)oxy)-7,9-dimethyl-14a-(((1-methylcyclopropyl)sulfonyl)carbamoyl)-5,16-dioxo-2,3,5,6,7,9,10,11,13a,14,14a,15,16,16a-tetradecahydro-1H-cyclopropa[i]pyrrolo[1,2-e][1,5,8]oxadiazacyclopentadecin-6-yl)carbamate], the negative logarithm of the EC50 (pEC50) was 9.00 to 9.29 in experiment [1] (read-out: LE_1a (EC50, range)) and 9.00 to 9.29 in experiment [2] (read-out: LE_1b (EC50, range)).
Regarding `COc1ccc2c(O[C@@H]3C[C@H]4C(=O)N[C@]5(C(=O)NS(=O)(=O)C6(C)CC6)C[C@H]5/C=C\CC[C@@H](C)O[C@@H](C)[C@H](NC(=O)OC(C)(C)C(F)(F)F)C(=O)N4C3)nc3c(c2c1)CCCO3` [Compound 2306, 1,1,1-trifluoro-2-methylpropan-2-yl ((2R,6S,7S,9R,13aS,14aR,16aS,Z)-2-((9-methoxy-2,3-dihydro-1H-pyrano[2,3-c]isoquinolin-6-yl)oxy)-7,9-dimethyl-14a-(((1-methylcyclopropyl)sulfonyl)carbamoyl)-5,16-dioxo-2,3,5,6,7,9,10,11,13a,14,14a,15,16,16a-tetradecahydro-1H-cyclopropa[i]pyrrolo[1,2-e][1,5,8]oxadiazacyclopentadecin-6-yl)carbamate], the pEC50 was 9.30 to 10.00 in experiment [1] (read-out: LE_1a (EC50, range)) and 9.30 to 10.00 in experiment [2] (read-out: LE_1b (EC50, range)).
Consider `CC[C@@H]1O[C@H](C)CC/C=C\[C@@H]2C[C@@]2(C(=O)NS(=O)(=O)C2(C)CC2)NC(=O)[C@@H]2C[C@@H](Oc3nc4c(c5cc(OC)ccc35)CCCO4)CN2C(=O)[C@H]1NC(=O)OC(C)(C)C(F)(F)F` [Compound 2307, 1,1,1-trifluoro-2-methylpropan-2-yl ((2R,6S,7S,9R,13aS,14aR,16aS,Z)-7-ethyl-2-((9-methoxy-2,3-dihydro-1H-pyrano[2,3-c]isoquinolin-6-yl)oxy)-9-methyl-14a-(((1-methylcyclopropyl)sulfonyl)carbamoyl)-5,16-dioxo-2,3,5,6,7,9,10,11,13a,14,14a,15,16,16a-tetradecahydro-1H-cyclopropa[i]pyrrolo[1,2-e][1,5,8]oxadiazacyclopentadecin-6-yl)carbamate], for which the pEC50 was 9.30 to 10.00 in experiment [1] (read-out: LE_1a (EC50, range)) and 9.30 to 10.00 in experiment [2] (read-out: LE_1b (EC50, range)).
Take `CC[C@@H]1O[C@H](C)CC/C=C\[C@@H]2C[C@@]2(C(=O)NS(=O)(=O)C2(C)CC2)NC(=O)[C@@H]2C[C@@H](Oc3nc4c(c5cc(OC)ccc35)CCCO4)CN2C(=O)[C@H]1NC(=O)OC(C)(C)C(C)(F)F` [Compound 2308, 3,3-difluoro-2-methylbutan-2-yl ((2R,6S,7S,9R,13aS,14aR,16aS,Z)-7-ethyl-2-((9-methoxy-2,3-dihydro-1H-pyrano[2,3-c]isoquinolin-6-yl)oxy)-9-methyl-14a-(((1-methylcyclopropyl)sulfonyl)carbamoyl)-5,16-dioxo-2,3,5,6,7,9,10,11,13a,14,14a,15,16,16a-tetradecahydro-1H-cyclopropa[i]pyrrolo[1,2-e][1,5,8]oxadiazacyclopentadecin-6-yl)carbamate]: the pEC50 in experiment [1] (read-out: LE_1a (EC50, range)) was 9.30 to 10.00; in experiment [2] (read-out: LE_1b (EC50, range)) it was 9.30 to 10.00.
Consider `COc1ccc2c(O[C@@H]3C[C@H]4C(=O)N[C@]5(C(=O)NS(=O)(=O)C6(C)CC6)C[C@H]5/C=C\CC[C@@H](C)O[C@@H](C)[C@H](NC(=O)OC(C)(C)C(C)(F)F)C(=O)N4C3)nc3c(c2c1)CCCO3` [Compound 2309, 3,3-difluoro-2-methylbutan-2-yl ((2R,6S,7S,9R,13aS,14aR,16aS,Z)-2-((9-methoxy-2,3-dihydro-1H-pyrano[2,3-c]isoquinolin-6-yl)oxy)-7,9-dimethyl-14a-(((1-methylcyclopropyl)sulfonyl)carbamoyl)-5,16-dioxo-2,3,5,6,7,9,10,11,13a,14,14a,15,16,16a-tetradecahydro-1H-cyclopropa[i]pyrrolo[1,2-e][1,5,8]oxadiazacyclopentadecin-6-yl)carbamate], for which the pEC50 was 9.00 to 9.29 in experiment [1] (read-out: LE_1a (EC50, range)) and 9.00 to 9.29 in experiment [2] (read-out: LE_1b (EC50, range)).
As for `COc1ccc2c(O[C@@H]3C[C@H]4C(=O)N[C@]5(C(=O)NS(=O)(=O)C6(C)CC6)C[C@H]5/C=C\CC[C@@H](C)O[C@@H](C)[C@H](NC(=O)OC(C)(C)C(F)F)C(=O)N4C3)nc3c(c2c1)CCCO3` [Compound 2310, 1,1-difluoro-2-methylpropan-2-yl ((2R,6S,7S,9R,13aS,14aR,16aS,Z)-2-((9-methoxy-2,3-dihydro-1H-pyrano[2,3-c]isoquinolin-6-yl)oxy)-7,9-dimethyl-14a-(((1-methylcyclopropyl)sulfonyl)carbamoyl)-5,16-dioxo-2,3,5,6,7,9,10,11,13a,14,14a,15,16,16a-tetradecahydro-1H-cyclopropa[i]pyrrolo[1,2-e][1,5,8]oxadiazacyclopentadecin-6-yl)carbamate], the negative-log EC50 (pEC50) is 9.30 to 10.00 in experiment [1] (read-out: LE_1a (EC50, range)) and 9.30 to 10.00 in experiment [2] (read-out: LE_1b (EC50, range)).
Take `CC[C@@H]1O[C@H](C)CC/C=C\[C@@H]2C[C@@]2(C(=O)NS(=O)(=O)C2(C)CC2)NC(=O)[C@@H]2C[C@@H](Oc3nc4c(c5cc(OC)ccc35)CCCO4)CN2C(=O)[C@H]1NC(=O)OC(C)(C)C(F)F` [Compound 2311, 1,1-difluoro-2-methylpropan-2-yl ((2R,6S,7S,9R,13aS,14aR,16aS,Z)-7-ethyl-2-((9-methoxy-2,3-dihydro-1H-pyrano[2,3-c]isoquinolin-6-yl)oxy)-9-methyl-14a-(((1-methylcyclopropyl)sulfonyl)carbamoyl)-5,16-dioxo-2,3,5,6,7,9,10,11,13a,14,14a,15,16,16a-tetradecahydro-1H-cyclopropa[i]pyrrolo[1,2-e][1,5,8]oxadiazacyclopentadecin-6-yl)carbamate]: the negative logarithm of the EC50 (pEC50) in experiment [1] (read-out: LE_1a (EC50, range)) was 9.30 to 10.00; in experiment [2] (read-out: LE_1b (EC50, range)), 9.30 to 10.00.
As to `COc1cnc(O[C@@H]2C[C@H]3C(=O)N[C@]4(C(=O)NS(=O)(=O)C5(C)CC5)C[C@H]4/C=C\CO[C@@H](C)C[C@@H](C)[C@H](NC(=O)OC(C)(C)C)C(=O)N3C2)c2ccccc12` [Compound 2601, tert-butyl ((2R,6S,7R,9S,13aS,14aR,16aS,Z)-2-((4-methoxyisoquinolin-1-yl)oxy)-7,9-dimethyl-14a-(((1-methylcyclopropyl)sulfonyl)carbamoyl)-5,16-dioxo-2,3,5,6,7,8,9,11,13a,14,14a,15,16,16a-tetradecahydro-1H-cyclopropa[e]pyrrolo[2,1-i][1,7,10]oxadiazacyclopentadecin-6-yl)carbamate], the pEC50 in experiment [1] (read-out: LE_1a (EC50, range)) is 8.30 to 9.00; in experiment [2] (read-out: LE_1b (EC50, range)) it was 8.30 to 9.00.
Regarding `COc1ccc2c(O[C@@H]3C[C@H]4C(=O)N[C@]5(C(=O)NS(=O)(=O)C6CC6)C[C@H]5/C=C\CO[C@@H](C)C[C@@H](C)[C@H](NC(=O)OC(C)(C)C)C(=O)N4C3)nccc2c1` [Compound 2603, tert-butyl ((2R,6S,7R,9S,13a5,14aR,16aS,Z)-14a-((cyclopropylsulfonyl)carbamoyl)-2-((6-methoxyisoquinolin-1-yl)oxy)-7,9-dimethyl-5,16-dioxo-2,3,5,6,7,8,9,11,13a,14,14a,15,16,16a-tetradecahydro-1H-cyclopropa[e]pyrrolo[2,1-i][1,7,10]oxadiazacyclopentadecin-6-yl)carbamate], the pEC50 is 8.04 in experiment [1] (read-out: LE_1a (EC50)); 7.46 to 8.30 in experiment [1] (read-out: LE_1a (EC50, range)); 8.18 in experiment [2] (read-out: LE_1b (EC50)); 7.46 to 8.30 in experiment [2] (read-out: LE_1b (EC50, range)).
